Test results from patent US20230085307A1, “PYRIDAZINONE COMPOUND AND HERBICIDE” (NISSAN CHEMICAL CORPORATION, priority 2019, published 2023).

Key:
windgrass [1] = assay: Test Example 5: herbicidal effect by foliage application, plastic box (Table 20, symbol L); assay type: in vivo, windgrass (Apera spica-venti); settings: foliage application, 320 g/ha, three weeks after application
Outline: (§1)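 Plants were sown into sterilized diluvial soil under about 1.5 cm cover and kept in a greenhouse at 25° C. to 30° C. Fourteen days on, foliage received an even spray of the diluted emulsion. Herbicidal or crop effect was judged three weeks afterwards.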

Chinese sprangletop = assay: Test Example 3: herbicidal effect by foliage application, Wagner pot (Table 18, symbol D); assay type: in vivo, chinese sprangletop (Leptochloa chinensis); settings: amount of applied herbicide 320 g/ha
Outline: (§2)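 Plants were sown in alluvial soil held under 0.1–0.5 cm standing water and grown 14 days in a greenhouse at 25–30 °C. An emulsifiable formulation, water-diluted to the set dose, was then sprayed onto the foliage, and effects were scored three weeks later using previously defined criteria.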

wild oat = assay: Test Example 5: herbicidal effect by foliage application, plastic box (Table 20, symbol I); assay type: in vivo, wild oat (Avena fatua); settings: foliage application, 320 g/ha, three weeks after application
Outline: as §1

oval-leafed pondweed = assay: Test Example 1: herbicidal activity, application before weed generation under submerged conditions (Table 16, symbol C); assay type: in vivo, oval-leafed pondweed (Monochoria vaginalis); settings: amount of applied herbicide 320 g/ha
Outline: (§3)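 Alluvial soil was flooded to 4 cm depth, weed seeds were sown mixed and 2.5-leaf rice seedlings were transplanted. On sowing day, the compound's emulsion, diluted in water to a set dose, was applied to the water surface. Plants grew at 25–30 °C and were scored 0–5 after three weeks.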

barnyard grass [2] = assay: Test Example 5: herbicidal effect by foliage application, plastic box (Table 20, symbol H); assay type: in vivo, barnyard grass (Echinochloa crus-galli); settings: foliage application, 320 g/ha, three weeks after application
Outline: as §1

Japanese bulrush = assay: Test Example 1: herbicidal activity, application before weed generation under submerged conditions (Table 16, symbol B); assay type: in vivo, Japanese bulrush (Schoenoplectus juncoides); settings: amount of applied herbicide 320 g/ha
Outline: as §3

green foxtail [3] = assay: Test Example 4: herbicidal effect by soil treatment (Table 19, symbol G); assay type: in vivo, green foxtail (Setaria viridis); settings: amount of applied herbicide 320 g/ha
Outline: (§4)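 In this soil treatment, the formulated compound reached the seeds only through the soil: seeds were buried about 1.5 cm deep in sterilized diluvial soil, then the diluted emulsion was sprayed over the surface. After three weeks at 25° C. to 30° C. in a greenhouse, effects were graded on criteria from an earlier test.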

barnyard grass [4] = assay: Test Example 4: herbicidal effect by soil treatment (Table 19, symbol H); assay type: in vivo, barnyard grass (Echinochloa crus-galli); settings: amount of applied herbicide 320 g/ha
Outline: as §4

lambsquarters = assay: Test Example 5: herbicidal effect by foliage application, plastic box (Table 20, symbol O); assay type: in vivo, lambsquarters (Chenopodium album); settings: foliage application, 320 g/ha, three weeks after application
Outline: as §1

redroot pigweed = assay: Test Example 4: herbicidal effect by soil treatment (Table 19, symbol N); assay type: in vivo, redroot pigweed (Amaranthus retroflexus); settings: amount of applied herbicide 320 g/ha
Outline: as §4

rice flat sedge = assay: Test Example 3: herbicidal effect by foliage application, Wagner pot (Table 18, symbol E); assay type: in vivo, rice flat sedge (Cyperus iria); settings: amount of applied herbicide 320 g/ha
Outline: as §2

velvetleaf = assay: Test Example 4: herbicidal effect by soil treatment (Table 19, symbol M); assay type: in vivo, velvetleaf (Abutilon theophrasti); settings: amount of applied herbicide 320 g/ha
Outline: as §4

southern crabgrass = assay: Test Example 4: herbicidal effect by soil treatment (Table 19, symbol F); assay type: in vivo, southern crabgrass (Digitaria ciliaris); settings: amount of applied herbicide 320 g/ha
Outline: as §4

barnyard grass [5] = assay: Test Example 3: herbicidal effect by foliage application, Wagner pot (Table 18, symbol H); assay type: in vivo, barnyard grass (Echinochloa crus-galli); settings: amount of applied herbicide 320 g/ha
Outline: as §2

green foxtail [6] = assay: Test Example 5: herbicidal effect by foliage application, plastic box (Table 20, symbol G); assay type: in vivo, green foxtail (Setaria viridis); settings: foliage application, 320 g/ha, three weeks after application
Outline: as §1

persian speedwell = assay: Test Example 5: herbicidal effect by foliage application, plastic box (Table 20, symbol R); assay type: in vivo, Persian speedwell (Veronica persica); settings: foliage application, 320 g/ha, three weeks after application
Outline: as §1

windgrass [7] = assay: Test Example 4: herbicidal effect by soil treatment (Table 19, symbol L); assay type: in vivo, windgrass (Apera spica-venti); settings: amount of applied herbicide 320 g/ha
Outline: as §4

CCCC(=O)Oc1c(CC)nn(C)c(=O)c1-c1c(-c2ccc(C(F)(F)F)cc2)sc2ccc(F)cc12 [2-411]
L: windgrass, herbicidal effect grade (windgrass [1]): 0 (Herbicidal rate of 5% or less (almost no effect))
herbicidal effect on D: Chinese sprangletop (Chinese sprangletop): 3 (Herbicidal rate of 40% or more and less than 70%)
I: wild oat, herbicidal effect grade (wild oat): 0 (Herbicidal rate of 5% or less (almost no effect))
Herbicidal effect, C: oval-leafed pondweed (oval-leafed pondweed): 0 (Herbicidal rate of 5% or less (almost no effect))
H: barnyard grass, herbicidal effect grade (barnyard grass [2]): 3 (Herbicidal rate of 40% or more and less than 70%)
Herbicidal effect, B: Japanese bulrush (Japanese bulrush): 0 (Herbicidal rate of 5% or less (almost no effect))
herbicidal effect, G: green foxtail (green foxtail [3]): 0 (Herbicidal rate of 5% or less (almost no effect))
herbicidal effect, H: barnyard grass (barnyard grass [4]): 0 (Herbicidal rate of 5% or less (almost no effect))
O: lambsquarters, herbicidal effect grade (lambsquarters): 4 (Herbicidal rate of 70% or more and less than 90%)
herbicidal effect, N: redroot pigweed (redroot pigweed): 0 (Herbicidal rate of 5% or less (almost no effect))
herbicidal effect on E: rice flat sedge (rice flat sedge): 3 (Herbicidal rate of 40% or more and less than 70%)
herbicidal effect, M: velvetleaf (velvetleaf): 0 (Herbicidal rate of 5% or less (almost no effect))
herbicidal effect, F: southern crabgrass (southern crabgrass): 0 (Herbicidal rate of 5% or less (almost no effect))
herbicidal effect on H: barnyard grass (barnyard grass [5]): 5 (Herbicidal rate of 90% or more (almost completely withered))
G: green foxtail, herbicidal effect grade (green foxtail [6]): 3 (Herbicidal rate of 40% or more and less than 70%)
R: persian speedwell, herbicidal effect grade (persian speedwell): 5 (Herbicidal rate of 90% or more (almost completely withered))
herbicidal effect, L: windgrass (windgrass [7]): 0 (Herbicidal rate of 5% or less (almost no effect))

CCOc1ccccc1-c1sc2ccc(F)cc2c1-c1c(O)c(CC)nn(C)c1=O [2-416]
L: windgrass, herbicidal effect grade (windgrass [1]): 0 (Herbicidal rate of 5% or less (almost no effect))
herbicidal effect on D: Chinese sprangletop (Chinese sprangletop): 3 (Herbicidal rate of 40% or more and less than 70%)
I: wild oat, herbicidal effect grade (wild oat): 0 (Herbicidal rate of 5% or less (almost no effect))
Herbicidal effect, C: oval-leafed pondweed (oval-leafed pondweed): 2 (Herbicidal rate of 20% or more and less than 40%)
H: barnyard grass, herbicidal effect grade (barnyard grass [2]): 3 (Herbicidal rate of 40% or more and less than 70%)
Herbicidal effect, B: Japanese bulrush (Japanese bulrush): 3 (Herbicidal rate of 40% or more and less than 70%)
herbicidal effect, G: green foxtail (green foxtail [3]): 0 (Herbicidal rate of 5% or less (almost no effect))
herbicidal effect, H: barnyard grass (barnyard grass [4]): 0 (Herbicidal rate of 5% or less (almost no effect))
O: lambsquarters, herbicidal effect grade (lambsquarters): 2 (Herbicidal rate of 20% or more and less than 40%)
herbicidal effect, N: redroot pigweed (redroot pigweed): 0 (Herbicidal rate of 5% or less (almost no effect))
herbicidal effect on E: rice flat sedge (rice flat sedge): 4 (Herbicidal rate of 70% or more and less than 90%)
herbicidal effect, M: velvetleaf (velvetleaf): 0 (Herbicidal rate of 5% or less (almost no effect))
herbicidal effect, F: southern crabgrass (southern crabgrass): 0 (Herbicidal rate of 5% or less (almost no effect))
herbicidal effect on H: barnyard grass (barnyard grass [5]): 5 (Herbicidal rate of 90% or more (almost completely withered))
G: green foxtail, herbicidal effect grade (green foxtail [6]): 2 (Herbicidal rate of 20% or more and less than 40%)
R: persian speedwell, herbicidal effect grade (persian speedwell): 5 (Herbicidal rate of 90% or more (almost completely withered))
herbicidal effect, L: windgrass (windgrass [7]): 0 (Herbicidal rate of 5% or less (almost no effect))

CCCC(=O)Oc1c(C)nn(C)c(=O)c1-c1c(-c2ccc(F)cc2)sc2cc(F)ccc12 [3-002]
L: windgrass, herbicidal effect grade (windgrass [1]): 1 (Herbicidal rate of 5% or more and less than 20%)
herbicidal effect on D: Chinese sprangletop (Chinese sprangletop): 0 (Herbicidal rate of 5% or less (almost no effect))
I: wild oat, herbicidal effect grade (wild oat): 4 (Herbicidal rate of 70% or more and less than 90%)
Herbicidal effect, C: oval-leafed pondweed (oval-leafed pondweed): 4 (Herbicidal rate of 70% or more and less than 90%)
H: barnyard grass, herbicidal effect grade (barnyard grass [2]): 3 (Herbicidal rate of 40% or more and less than 70%)
Herbicidal effect, B: Japanese bulrush (Japanese bulrush): 3 (Herbicidal rate of 40% or more and less than 70%)
herbicidal effect, G: green foxtail (green foxtail [3]): 0 (Herbicidal rate of 5% or less (almost no effect))
herbicidal effect, H: barnyard grass (barnyard grass [4]): 0 (Herbicidal rate of 5% or less (almost no effect))
O: lambsquarters, herbicidal effect grade (lambsquarters): 3 (Herbicidal rate of 40% or more and less than 70%)
herbicidal effect, N: redroot pigweed (redroot pigweed): 5 (Herbicidal rate of 90% or more (almost completely withered))
herbicidal effect on E: rice flat sedge (rice flat sedge): 3 (Herbicidal rate of 40% or more and less than 70%)
herbicidal effect, M: velvetleaf (velvetleaf): 0 (Herbicidal rate of 5% or less (almost no effect))
herbicidal effect, F: southern crabgrass (southern crabgrass): 0 (Herbicidal rate of 5% or less (almost no effect))
herbicidal effect on H: barnyard grass (barnyard grass [5]): 5 (Herbicidal rate of 90% or more (almost completely withered))
G: green foxtail, herbicidal effect grade (green foxtail [6]): 4 (Herbicidal rate of 70% or more and less than 90%)
R: persian speedwell, herbicidal effect grade (persian speedwell): 5 (Herbicidal rate of 90% or more (almost completely withered))
herbicidal effect, L: windgrass (windgrass [7]): 3 (Herbicidal rate of 40% or more and less than 70%)

COc1ccccc1-c1sc2cc(F)ccc2c1-c1c(O)c(C)nn(C)c1=O [3-003]
L: windgrass, herbicidal effect grade (windgrass [1]): 5 (Herbicidal rate of 90% or more (almost completely withered))
herbicidal effect on D: Chinese sprangletop (Chinese sprangletop): 3 (Herbicidal rate of 40% or more and less than 70%)
I: wild oat, herbicidal effect grade (wild oat): 5 (Herbicidal rate of 90% or more (almost completely withered))
Herbicidal effect, C: oval-leafed pondweed (oval-leafed pondweed): 5 (Herbicidal rate of 90% or more (almost completely withered))
H: barnyard grass, herbicidal effect grade (barnyard grass [2]): 5 (Herbicidal rate of 90% or more (almost completely withered))
Herbicidal effect, B: Japanese bulrush (Japanese bulrush): 4 (Herbicidal rate of 70% or more and less than 90%)
herbicidal effect, G: green foxtail (green foxtail [3]): 5 (Herbicidal rate of 90% or more (almost completely withered))
herbicidal effect, H: barnyard grass (barnyard grass [4]): 4 (Herbicidal rate of 70% or more and less than 90%)
O: lambsquarters, herbicidal effect grade (lambsquarters): 4 (Herbicidal rate of 70% or more and less than 90%)
herbicidal effect, N: redroot pigweed (redroot pigweed): 5 (Herbicidal rate of 90% or more (almost completely withered))
herbicidal effect on E: rice flat sedge (rice flat sedge): 5 (Herbicidal rate of 90% or more (almost completely withered))
herbicidal effect, M: velvetleaf (velvetleaf): 3 (Herbicidal rate of 40% or more and less than 70%)
herbicidal effect, F: southern crabgrass (southern crabgrass): 4 (Herbicidal rate of 70% or more and less than 90%)
herbicidal effect on H: barnyard grass (barnyard grass [5]): 5 (Herbicidal rate of 90% or more (almost completely withered))
G: green foxtail, herbicidal effect grade (green foxtail [6]): 5 (Herbicidal rate of 90% or more (almost completely withered))
R: persian speedwell, herbicidal effect grade (persian speedwell): 5 (Herbicidal rate of 90% or more (almost completely withered))
herbicidal effect, L: windgrass (windgrass [7]): 3 (Herbicidal rate of 40% or more and less than 70%)
